Laboratory results as given in patent US20100130597A1, “DNA-PKCS MODULATES ENERGY REGULATION AND BRAIN FUNCTION” (The United State of America, as represented by the …, priority 2007, published 2010).

Key:
[1] = Body weight, fat and lean mass, food intake and activity of treated mice; assay type: in vivo
Protocol: To determine the source of the body weight difference observed as described in Example 9, the fat and lean mass of the animals used in these experiments were measured using NMR spectroscopy (Bruker BioSpin Corporation, Houston, Tex.). Body fat indices were calculated by dividing fat or lean mass by body weight.
(§1) The therapeutic potential of DNA-PKcs inhibitors to treat insulin resistance and diabetes was tested in vivo using high-fat induced type 2 diabetes and obesity models. We examined the effects of DNA-PKcs inhibition by feeding C57BL6/J mice with Compound 36 (Cpd36) or vehicle. Mice were treated with Cpd36 (8 mg/kg body weight) twice daily by oral gavage for three months in all efficacy studies shown in FIGS. 40-47.
Body weight was monitored in mice receiving Cpd36 (8 mg/kg body weight) twice daily by oral gavage for three months.

[2] = Blood lactate during standardized treadmill test; assay type: in vivo, mice; details: capillary blood during standardized treadmill test, FIG. 46A
Protocol: The use of Cpd36 may also facilitate more rapid recovery following intense physical exertion. Blood lactate concentrations were measured in capillary blood during a standardized treadmill test.

Forced swim test (FST) = assay type: in vivo, mice
Protocol: (§2) Elevated plus maze tests, light/dark chamber tests, forced swim tests (FST) and hot plate tests were performed as described earlier.

C2C12 cells [3] = experiment: Intercellular NAD:NADH ratio in C2C12 cells; assay type: cell-based; details: FIG. 54, Resveratrol 50 μM data not shown
Protocol: To test whether DNA-PKcs inhibitor affects Sirt1 activity, the intercellular NAD:NADH ratio was measured in C2C12 cells treated with Cpd36.

C2C12 cells [4] = experiment: Cellular lactate and pyruvate in C2C12 cells; assay type: cell-based; details: 0.8 μM
[5] = Glucose levels, insulin tolerance and glucose tolerance tests in treated mice; assay type: in vivo; details: for fed glucose levels in the serum: 8 mg/kg twice daily oral gavage three months
Protocol: as §1

Light/dark chamber test = assay type: in vivo; details: treated vs untreated mice
Protocol: WT and SCID mice were tested in another anxiety test using the light-dark box (Bourin and Hascoet, Eur J Pharmacol 463:55 (2003)). The light-dark box test is based on the innate aversion of rodents to brightly illuminated areas and on the spontaneous exploratory behavior of rodents in response to a mildly stressful situation, that is, a novel environment and light (Crawley and Goodwin Pharmacol Biochem Behav 13:167, 1980). In the light-dark test, increased activity in the light compartment indicates decreased anxiety.
as §2

[6] = Treadmill running endurance; assay type: in vivo, mice
Protocol: Previous studies have shown that increased expression of PPARδ or PGC-1α in skeletal muscle decreases exercise-induced fatigue. Therefore, tests were performed to ascertain what was the physical endurance of 4, 7 and 14 month-old SCID and WT mice using treadmill running. Prior to the exercise test, the mice were accustomed to and trained by running on an Exer-3/6 mouse treadmill (Columbus Instruments) at 7 m/min for 5 minutes for 3 days. For the endurance test, the treadmill speed was increased to 10 m/min and mice were allowed to run until exhaustion.
The therapeutic potential of DNA-PKcs inhibitors to reverse physical decline with aging was tested. In particular, the physical endurance of obese and middle-aged mice treated with Cpd36 was examined by treadmill running. Obese mice fed a high-fat diet that were treated with Cpd36 were able to run 40-50% farther over a given period of time than the control mice fed the same high fat diet (FIG. 45), as measured by totaling the distance run on a treadmill. Middle-aged mice (13 months) fed a breeder diet who were similarly treated with Cpd36 were also able to run 40-50% farther than middle aged mice that received no such treatment (data not shown).

Elevated plus maze test = assay type: in vivo, mice
Protocol: To evaluate whether SCID mice may also have altered anxiety, fear and depression-like traits, an elevated plus maze test was performed, which is a commonly used test to quantify the level of anxiety- and depression-like traits in rodents (Pellow et al. J. Neurosci. Methods 14: 149-67 (1985)). The elevated plus maze has narrow runways that are located 16 inches above the surface that are either closed or open. The animal is placed in the center of an elevated 4-arm maze in which 2 arms are open and 2 are enclosed. Mice generally avoid the open arms because of their fear of open space and height. The elevated plus-maze is used to determine the rodent's response to a potentially dangerous environment and anxiety-related behavior is measured by the degree to which the rodent avoids the unenclosed arms of the maze. Increase in the number of times the animal enters the open arm and the amount of time spent in the open arms reflect decreased anxiety and depression.
as §2

[7] = Blood-brain barrier penetration inferred from behavioural effects; assay type: in vivo, mice; details: inferred from decreased anxiety/depression at a low-dose
From the text: For any central nervous system drugs, a major rate-limiting step for uptake into the brain is BBB permeability. […] The BBB is an essential physiological barrier for the maintenance and regulation of brain function. It is comprised of brain microvascular endothelial cells that are connected by tight junctions. This transvascular route to the brain is impenetrable to the majority of drugs. Enhanced BBB permeability is obtained, for example, by increasing the lipid solubility of the water-soluble molecules.

[8] = Hot plate test, latency for pain reaction; assay type: in vivo, mice; details: hot plate, FIG. 48E
Protocol: Epidemiological studies indicate that people with mood disorders are twice as likely to have chronic pain compared to people without mood disorders (Ohayon et al., Arch. Gen. Psychiatry 60: 39-47 (2003)). Although it is possible that pain contributes to the depressed mood, it is also possible that perception of pain is increased in people with mood disorders. To determine whether SCID mice have altered pain tolerance, the latency for pain reaction to a hot plate was measured. […] (FIG. 30) and at 55° C.
Because tolerance to pain (Example 26) is also linked to the serotonergic pathways, measurements of the latency to pain reaction on hot plate after saline, serotonin reuptake inhibitor fluoxetine (Prozac) or serotonin antagonist GR38032F (Zofran) injection were made.
as §2

**Q.** With `O=c1cc(N2CCOCC2)oc2c(-c3cccc4c5c(sc34)CCCC5)cccc12` [Compound 36, 8-(6′,7′,8′,9′-Tetrahydrodibenzothiophen-4′-yl)-2-N-morpholinochromen-4-one] as the compound, how does the “fat mass (NMR)” value ([1]; HFD mice vs control, FIG. 44) read?
**A.** reduction in fat mass

**Q.** What about the “lean mass (NMR)” value ([1]; HFD mice vs control, FIG. 44) of the same compound?
**A.** slight increase in lean mass

**Q.** What about the body weight ([1]; HFD mice, 8 mg/kg twice daily oral gavage three months, FIG. 43) of the same compound?
**A.** did not increase in body weight substantially

**Q.** And the food intake ([1]; HFD mice, 8 mg/kg twice daily oral gavage three months, data not shown)?
**A.** did increase

**Q.** What about the “activity of mice vs control HFD mice” value ([1]; HFD mice, data not shown) of the same compound?
**A.** no significant difference

**Q.** What about the mesenteric fat ([1]; mice on HFD 3 months, 8 mg/kg twice daily oral gavage 3 months, vs vehicle) of the same compound?
**A.** reduced mesenteric fat significantly

**Q.** What about the serum lactate levels [2] of the same compound?
**A.** Significantly lower serum lactate levels

**Q.** What about the “mobility vs untreated mice” value (Forced swim test (FST); FIG. 47D) of the same compound?
**A.** more mobile

**Q.** And the “immobility in the forced swim test” value (Forced swim test (FST); data not shown)?
**A.** decreased immobility

**Q.** And the “intercellular NAD:NADH ratio” value (C2C12 cells [3])?
**A.** increased the NAD:NADH ratio

**Q.** What about the “lactate levels in cell extracts” value (C2C12 cells [4]; 16 hrs, FIG. 46B) of the same compound?
**A.** Reduced lactate levels

**Q.** What about the Cellular pyruvate level (C2C12 cells [4]; data not shown) of the same compound?
**A.** increased

**Q.** And the “fed glucose levels in the serum” value ([5]; HFD (obese) mice, FIG. 40A)?
**A.** lowered fed glucose levels

**Q.** What about the “fed glucose levels in the serum” value ([5]; middle-aged mice (breeder diet 13 months), FIG. 40B) of the same compound?
**A.** lowered fed glucose levels

**Q.** And the glucose tolerance ([5]; middle-aged mice, FIG. 41)?
**A.** increased

**Q.** And the insulin sensitivity ([5]; middle-aged mice, FIG. 41)?
**A.** increased

**Q.** What about the glucose tolerance ([5]; obese mice, FIG. 42) of the same compound?
**A.** increased

**Q.** What about the insulin sensitivity ([5]; obese mice, FIG. 42) of the same compound?
**A.** increased

**Q.** What about the “time in the light compartment” value (Light/dark chamber test) of the same compound?
**A.** more time in the light compartment

**Q.** And the “time to enter the light chamber” value (Light/dark chamber test)?
**A.** quicker to enter the light chamber

**Q.** And the “distance run on treadmill, farther than untreated” value ([6]; middle-aged mice (13 months) on breeder diet, data not shown)?
**A.** 40-50%

**Q.** What about the “distance run on treadmill, farther than control” value ([6]; obese mice on high-fat diet, FIG. 45) of the same compound?
**A.** 40-50%

**Q.** And the levels of anxiety/depression (Elevated plus maze test; elevated plus maze and light/dark chamber tests, FIGS. 47 and 48)?
**A.** dramatically lower levels of anxiety/depression

**Q.** What about the “time in closed arm of the elevated plus maze” value (Elevated plus maze test; treated vs untreated mice) of the same compound?
**A.** less time in a closed arm

**Q.** And the “blood-brain barrier (BBB) penetration” value [7]?
**A.** can penetrate the blood-brain barrier (BBB) efficiently

**Q.** And the pain sensation [8]?
**A.** decreased pain sensation
